Measurements as given in patent US5574043A, “Certain [1,2,5-thiadiazol-4-yl]-1-azabicyclo [3.2.1]octane derivatives and their pharmaceutical uses” (Novo Nordisk A/S, priority 1995, dated 1996).
Where a name gives a salt, the structure may show the parent alone.

Legend:
[1] = in vivo; cited from earlier work
[2] = system: central and peripheral muscarinic effects; conditions: cited from earlier work
[3] = target: muscarinic acetylcholine receptors; test: Inhibition of specific binding of 3H-Oxotremorine-M (OXO BINDING) in vitro, rat cortex; parameters: species or system male Wistar rats; conditions: rat cortex homogenate, 3H-Oxotremorine 1.0 nM, 30 min at 25° C., pH 7.4
Summary of the method: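 Washed male Wistar rat cortex membranes in 20 mM Hepes pH 7.4 incubated 30 min at 25° C with 1.0 nM ³H-Oxotremorine-M (final) and test compound; nonspecific binding with 1 μg/ml arecoline. Filtration and scintillation counting; IC50 (ng/ml) for specific binding calculated assuming mass-action kinetics.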

SMILES	biological half life [1]	separation between central and peripheral muscarinic effects [2]	Inhibition in vitro OXO BINDING IC50 [3] [ng/mL]
COC(=O)C1=CCCN(C)C1 [Arecoline, methyl 1-methyl-1,2,5,6-tetrahydropyridine-3carboxylate]	very short	small separation	–
CCCCSc1nsnc1[C@@H]1CN2CCC[C@@H]1C2 (single isomer, unassigned) [Compound 111, (+)-Exo-6-(3-butylthio-1,2,5-thiadiazol-4-yl)-1-azabicyclo[3.2.1]octane (+) L-tartrate]	–	–	0.32
ClC1=C(c2nsnc2Cl)C2CCC(C1)N2.O=C(O)C(=O)O (stereo not shown) [Compound 47, 3-Chloro-2-(3-chloro-1,2,5-thiadiazol-4-yl)-8-azabicyclo[3.2.1]oct-2-ene oxalate]	–	–	> 300
CCOc1nsnc1C1=C(Cl)CC2CCC1N2.O=C(O)C(=O)O (stereo not shown) [Compound 43, 3-Chloro-2-(3-ethoxy-1,2,5-thiadiazol-4-yl)-8-azabicyclo[3.2.1]oct-2-ene oxalate]	–	–	2.33
Clc1nsnc1[C@H]1CN2CCC[C@@H]1C2 (relative stereo) [Compound 16, Endo-6-(3-chloro-1,2,5-thiadiazol-4-yl)-1-azabicyclo[3.2.1]octane-oxalate]	–	–	67
N#CCCCCSc1nsnc1[C@H]1CN2CCC[C@@H]1C2 (relative stereo) [Compound 92, Endo-6-(3-(4-cyanobutylthio)-1,2,5-thiadiazol-4-yl)-1-azabicyclo[3.2.1]octane oxalate]	–	–	1.5
CCC(C)Sc1nsnc1C1CN2CCC1CC2.O=C(O)/C=C/C(=O)O (stereo not shown) [Compound 100, 3-(3-(1-Methylpropylthio)-1,2,5-thiadiazol-4-yl)-1-azabicyclo[2.2.2]octane fumarate]	–	–	0.82
CCCCCCSc1nsnc1[C@@H]1CN2CC[C@H]1C2 (relative stereo) [Compound 34, Endo-3-(3-hexylthio-1,2,5-thiadiazol-4-yl)-1-azabicyclo[2.2.1]heptane fumarate]	–	–	7.9
CCCCCOc1nsnc1C1=C(Cl)C2CCCN(C1)C2 (stereo not shown) [Compound 63, 4-Chloro-3-(3-pentyloxy-1,2,5-thiadiazol-4-yl)-1-azabicyclo[3.3.1]non-3-eneoxalate]	–	–	8.2
CSc1nsnc1C1CN2CCC1CC2.O=C(O)C(=O)O (stereo not shown) [Compound 131, 3-(3-Methylthio-1,2,5-thiadiazol-4-yl)-1-azabicyclo[2.2.2]octane oxalate]	–	–	0.96
CCCCCCOc1nsnc1C1CN2CCC1CC2.O=C(O)/C=C/C(=O)O (stereo not shown) [Compound 11, 3-(3-Hexyloxy-1,2,5-thiadiazol-4-yl)-1-azabicyclo[2.2.2]octane fumarate]	–	–	1.2
CCCCCSc1nsnc1[C@H]1CN2CCC[C@H]1C2 (relative stereo) [Compound 31, Exo-6-(3-pentylthio-1,2,5-thiadiazol-4-yl)-1-azabicyclo[3.2.1]octane oxalate]	–	–	0.6
CCCSc1nsnc1[C@H]1CN2CC[C@H]1C2 (relative stereo) [Compound 40, Exo-3-(3-propylthio-1,2,5-thiadiazol-4-yl)-1-azabicyclo[2.2.1]heptane oxalate]	–	–	0.19
FC(F)(F)CCCSc1nsnc1[C@@H]1CN2CCC[C@@H]1C2 (single isomer, unassigned) [Compound 130, (+)-Exo-6-(3-(4,4,4-trifluoro-1-butylthio)-1,2,5-thiadiazol-4-yl)-1-azabicyclo[3.2.1]octane oxalate]	–	–	0.60
CCCCOc1nsnc1[C@@H]1CN2CCC[C@@H]1C2 (relative stereo) [Compound 120, Exo-6-(3-butoxy-1,2,5-thiadiazol-4-yl)-1-azabicyclo[3.2.1]octane oxalate]	–	–	0.28
CCOc1nsnc1C1CN2CCC1CC2.O=C(O)/C=C/C(=O)O (stereo not shown) [Compound 9, 3-(3-Ethoxy-1,2,5-thiadiazol-4-yl)-1-azabicyclo[2.2.2]octane fumarate]	–	–	0.69
CCC=CCCOc1nsnc1C1CN2CCC1CC2.O=C(O)/C=C/C(=O)O (stereo not shown) [Compound 49, 3-(3-(3-Hexenyloxy)-1,2,5-thiadiazol-4-yl)-1-azabicyclo[2.2.2]octane fumarate]	–	–	0.33
CCCCSc1nsnc1[C@H]1CN2CC[C@H]1C2 (relative stereo) [Compound 42, Exo-3-(3-butylthio-1,2,5-thiadiazol-4-yl)-1-azabicyclo[2.2.1]heptane oxalate]	–	–	0.35
